From the supplement of paper PMC9386025

The molecules below were run on FIMM-PDC5 (patient-derived ovarian cancer cells) (assay: drug sensitivity score (DSS) (DSS (dimensionless)); higher = more sensitive (stronger drug response)). Conditions: genetic perturbation: none (patient-derived cell culture).
In short: (§1)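 Ovarian cancer cell lines, after at least three days of shRNA induction with 100 ng/ml doxycycline, and patient-derived cultures were plated at 1 000 – 1 500 cells per well into 384-well plates pre-loaded with drugs at five concentrations spanning a 10,000-fold range. Plates were then kept for three days at 37 °C and 5.0 % CO2. Viability was measured as CellTiter-Glo luminescence on a PHERAstar FS, and each drug's dose-response curve was reduced to a drug sensitivity score computed by a previously described method.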
In the case of Nc1ccccc1NC(=O)c1ccc(CNc2nccc(-c3cccnc3)n2)cc1 [Mocetinostat], the drug sensitivity score is reported as 12.3. For CCNC(=O)C[C@@H]1N=C(c2ccc(Cl)cc2)c2cc(OC)ccc2-n2c(C)nnc21 [Molibresib], the drug sensitivity score was 7.6. Work on N#CCNC(=O)c1ccc(-c2ccnc(Nc3ccc(N4CCOCC4)cc3)n2)cc1 [Momelotinib] yielded a drug sensitivity score of 7.2. Cc1cc(OCc2nnc(SC3CCCC3)n2-c2cccnc2)ccc1-c1ccc(S(C)(=O)=O)cc1 [NMS-873] showed a drug sensitivity score of 5.5. COc1ccc(-c2ccc3ncc4c(c3c2)n(-c2ccc(N3CCNCC3)c(C(F)(F)F)c2)c(=O)n4C)cn1 [NVP-BGT226] gave a drug sensitivity score of 25.6. With COc1cc2c(cc1OC(C)C)[C@H](c1ccc(Cl)cc1)N(c1ccc(N(C)C[C@H]3CC[C@H](N4CCN(C)C(=O)C4)CC3)cc1)C(=O)C2 [NVP-CGM097] the drug sensitivity score was 15.4. Work on CN[C@@H](C)C(=O)N[C@H](C(=O)N1CCC[C@H]1c1nc(C(=O)c2ccc(F)cc2)cs1)C1CCCCC1 [NVP-LCL161] yielded a drug sensitivity score of 2.7. Work on Cn1c(Nc2ccc(C(F)(F)F)cc2)nc2cc(Oc3ccnc(-c4ncc(C(F)(F)F)[nH]4)c3)ccc21 [NVP-RAF265] yielded a drug sensitivity score of 14.6. CC(=O)c1cc2c(o1)C(=O)c1ccccc1C2=O [Napabucasin] showed a drug sensitivity score of 13.4. CC1(C)CCC(c2ccc(Cl)cc2)=C(CN2CCN(c3ccc(C(=O)NS(=O)(=O)c4ccc(N[C@H](CCN5CCOCC5)CSc5ccccc5)c(S(=O)(=O)C(F)(F)F)c4)cc3)CC2)C1 [Navitoclax] was tested, and the drug sensitivity score was 19.5. CCOc1cc2ncc(C#N)c(Nc3ccc(OCc4ccccn4)c(Cl)c3)c2cc1NC(=O)/C=C/CN(C)C [Neratinib] gave a drug sensitivity score of 16.1. COC(=O)c1ccc2c(c1)NC(=O)/C2=C(\Nc1ccc(N(C)C(=O)CN2CCN(C)CC2)cc1)c1ccccc1 [Nintedanib] showed a drug sensitivity score of 9.9. CC(=O)c1cnc2ccc(-c3cc(Cl)c(O)c(Cl)c3)nc2c1N[C@H]1CC[C@H](CN(C)C)CC1 [OTS167] was tested, and the drug sensitivity score was 14.7. With O=C(c1cc(Cc2n[nH]c(=O)c3ccccc23)ccc1F)N1CCN(C(=O)C2CC2)CC1 [Olaparib] the drug sensitivity score was 6.1. In the case of COC(=O)C[C@](O)(CCCC(C)(C)O)C(=O)O[C@@H]1C(OC)=C[C@]23CCCN2CCc2cc4c(cc2[C@H]13)OCO4 [Omacetaxine], the drug sensitivity score is reported as 21.3. CC1(C)CC[C@]2(NC(=O)C(C)(F)F)CC[C@]3(C)[C@H](C(=O)C=C4[C@@]5(C)C=C(C#N)C(=O)C(C)(C)[C@@H]5CC[C@]43C)[C@@H]2C1 [Omaveloxolone] gave a drug sensitivity score of 11.3. For COc1ncc(-c2ccc3nccc(-c4ccnnc4)c3c2)cc1NS(=O)(=O)c1ccc(F)cc1F [Omipalisib], the drug sensitivity score was 21.9.

What follows are molecules tested on JHOS2 in the same assay as above. Conditions: genetic perturbation: DOX-induced PTK7 shRNA knockdown.
In short: as §1
With COc1cc(C(=O)O)ccc1NC(=O)[C@@H]1N[C@@H](CC(C)(C)C)[C@](C#N)(c2ccc(Cl)cc2F)[C@H]1c1cccc(Cl)c1F [Idasanutlin] the drug sensitivity score was < 0. Molecule O=C(Nc1ccncc1)C(=O)c1cn(Cc2ccc(Cl)cc2)c2ccccc12 [Indibulin] has a drug sensitivity score of 6.4. With CC(C)NC[C@@H](C(=O)N1CCN(c2ncnc3c2[C@H](C)C[C@H]3O)CC1)c1ccc(Cl)cc1 [Ipatasertib] the drug sensitivity score was < 0. Work on CC(C)C[C@H](NC(=O)CNC(=O)c1cc(Cl)ccc1Cl)B(O)O [Ixazomib] yielded a drug sensitivity score of 13.5. Work on CCNCCS(=O)(=O)NC[C@@]1(c2ccccc2)SC(NC(=O)C(C)(C)C)=NN1C(=O)C(C)(C)C [Litronesib] yielded a drug sensitivity score of 8.5. For NC(=O)N1CCC(CC(=O)N2CCC([C@H]3c4ncc(Br)cc4CCc4cc(Cl)cc(Br)c43)CC2)CC1 [Lonafarnib], the drug sensitivity score was 5.5. CCNC(=O)c1noc(-c2cc(C(C)C)c(O)cc2O)c1-c1ccc(CN2CCOCC2)cc1 [Luminespib] was tested, and the drug sensitivity score was 15.6. Molecule O=C(Nc1cccc(NC(=O)c2cccc(O)c2O)c1)c1cccc(O)c1O [MST-312] has a drug sensitivity score of 11.6. In the case of CCN(CC)CCCC(C)Nc1c2ccc(Cl)cc2nc2ccc(OC)cc12 (stereo not given) [Mepacrine], the drug sensitivity score is reported as 18.8. S=c1[nH]cnc2nc[nH]c12 [Mercaptopurine] was tested, and the drug sensitivity score was 0.1. For CN(Cc1cnc2nc(N)nc(N)c2n1)c1ccc(C(=O)N[C@@H](CCC(=O)O)C(=O)O)cc1 [Methotrexate], the drug sensitivity score was < 0. CO[C@@H]1[C@H](N(C)C(=O)c2ccccc2)C[C@H]2O[C@]1(C)n1c3ccccc3c3c4c(c5c6ccccc6n2c5c31)C(=O)NC4 [Midostaurin] gave a drug sensitivity score of 13.1. Work on CNC(=O)c1nn(C)c2c1C(C)(C)Cc1cnc(Nc3ccc(N4CCN(C)CC4)cc3)nc1-2 [Milciclib] yielded a drug sensitivity score of 6.3. Work on CCCCCCCCCCCCCCCCOP(=O)([O-])OCC[N+](C)(C)C [Miltefosine] yielded a drug sensitivity score of 13. In the case of O=C1c2c(O)ccc(O)c2C(=O)c2c(NCCNCCO)ccc(NCCNCCO)c21 [Mitoxantrone], the drug sensitivity score is reported as 5.5. For CCS(=O)(=O)Nc1ccc(Oc2ccc(F)cc2F)c(-c2cn(C)c(=O)c3[nH]ccc23)c1 [Mivebresib], the drug sensitivity score was 18.2. Nc1ccccc1NC(=O)c1ccc(CNc2nccc(-c3cccnc3)n2)cc1 [Mocetinostat] showed a drug sensitivity score of 8. CCNC(=O)C[C@@H]1N=C(c2ccc(Cl)cc2)c2cc(OC)ccc2-n2c(C)nnc21 [Molibresib] showed a drug sensitivity score of 6.8. N#CCNC(=O)c1ccc(-c2ccnc(Nc3ccc(N4CCOCC4)cc3)n2)cc1 [Momelotinib] gave a drug sensitivity score of 8.3. Molecule Cc1cc(OCc2nnc(SC3CCCC3)n2-c2cccnc2)ccc1-c1ccc(S(C)(=O)=O)cc1 [NMS-873] has a drug sensitivity score of 7.7. For COc1ccc(-c2ccc3ncc4c(c3c2)n(-c2ccc(N3CCNCC3)c(C(F)(F)F)c2)c(=O)n4C)cn1 [NVP-BGT226], the drug sensitivity score was 11. COc1cc2c(cc1OC(C)C)[C@H](c1ccc(Cl)cc1)N(c1ccc(N(C)C[C@H]3CC[C@H](N4CCN(C)C(=O)C4)CC3)cc1)C(=O)C2 [NVP-CGM097] was tested, and the drug sensitivity score was 5.9. CN[C@@H](C)C(=O)N[C@H](C(=O)N1CCC[C@H]1c1nc(C(=O)c2ccc(F)cc2)cs1)C1CCCCC1 [NVP-LCL161] was tested, and the drug sensitivity score was 26. For Cn1c(Nc2ccc(C(F)(F)F)cc2)nc2cc(Oc3ccnc(-c4ncc(C(F)(F)F)[nH]4)c3)ccc21 [NVP-RAF265], the drug sensitivity score was < 0. In the case of CC(=O)c1cc2c(o1)C(=O)c1ccccc1C2=O [Napabucasin], the drug sensitivity score is reported as 22. With CC1(C)CCC(c2ccc(Cl)cc2)=C(CN2CCN(c3ccc(C(=O)NS(=O)(=O)c4ccc(N[C@H](CCN5CCOCC5)CSc5ccccc5)c(S(=O)(=O)C(F)(F)F)c4)cc3)CC2)C1 [Navitoclax] the drug sensitivity score was 1.1. CCOc1cc2ncc(C#N)c(Nc3ccc(OCc4ccccn4)c(Cl)c3)c2cc1NC(=O)/C=C/CN(C)C [Neratinib] gave a drug sensitivity score of 0.6. In the case of COC(=O)c1ccc2c(c1)NC(=O)/C2=C(\Nc1ccc(N(C)C(=O)CN2CCN(C)CC2)cc1)c1ccccc1 [Nintedanib], the drug sensitivity score is reported as 4. Molecule CC(=O)c1cnc2ccc(-c3cc(Cl)c(O)c(Cl)c3)nc2c1N[C@H]1CC[C@H](CN(C)C)CC1 [OTS167] has a drug sensitivity score of 15.7. For O=C(c1cc(Cc2n[nH]c(=O)c3ccccc23)ccc1F)N1CCN(C(=O)C2CC2)CC1 [Olaparib], the drug sensitivity score was 6.6. COC(=O)C[C@](O)(CCCC(C)(C)O)C(=O)O[C@@H]1C(OC)=C[C@]23CCCN2CCc2cc4c(cc2[C@H]13)OCO4 [Omacetaxine] was tested, and the drug sensitivity score was 20.8. With CC1(C)CC[C@]2(NC(=O)C(C)(F)F)CC[C@]3(C)[C@H](C(=O)C=C4[C@@]5(C)C=C(C#N)C(=O)C(C)(C)[C@@H]5CC[C@]43C)[C@@H]2C1 [Omaveloxolone] the drug sensitivity score was 10.1. COc1ncc(-c2ccc3nccc(-c4ccnnc4)c3c2)cc1NS(=O)(=O)c1ccc(F)cc1F [Omipalisib] gave a drug sensitivity score of 9.3.
